In a melting point compilation (Tetko et al.; mined from patent text by program, amines drawn as free bases though some values may be those of a salt) one finds melting point data, which are given here for 90 compounds.

Take `CCNC(=S)Nc1ccccc1N1CCOCC1`: the melting point (commonly the temperature of the solid-liquid transition) lay in the range of 118 to 120 °C. Regarding `CCCSc1cccc2c1C(=O)c1cccc(SCCC)c1C2=O`, the melting point fell in the range of 232 to 233 °C.

With `CC(=O)Oc1c(C)nc(N)nc1C(C)C`, the melting point fell in the range of 141 to 142 °C. The same measure for `CN(C)CCOC(=O)c1ccc(CCN2CC=C(c3c[nH]c(-c4ccc(F)cc4)c3-c3ccncc3)CC2)cc1`: 178 to 181 °C; for `CCN(CC)CCn1c(=O)c2cnc3c(cnn3CC)c2n2nc(C)cc12`: 90 to 92 °C; for `Cn1cnc2c1c(=O)n(CC(O)CN1CCN(C(c3ccc(F)cc3)c3ccc(F)cc3)CC1)c(=O)n2C` (stereo not given): 138 to 140 °C. `CCc1ccc(N)c(C(=O)c2ccccc2)c1` yielded a melting point of 57 to 59 °C. In turn, `CC(C)(C)c1csc(-c2cc3cc(CCc4ccccc4C(=O)O)ccc3o2)n1` yielded a melting point of 147 to 148 °C. In the case of `NC(=O)N(O)Cc1cccc2ccsc12`, the melting point lay within 138 to 140 °C.

Regarding `COC(=O)C(=O)NCC(C#Cc1ccccc1)c1ccc(OC)c(OC2CCCC2)c1` (racemic), the melting point was 120 to 124 °C. With `Clc1ccc(C2CC(n3ccnc3)c3ccccc3N2)cc1` (stereo not given), the melting point fell in the range of 158 to 160 °C. As for `COCCOCOc1c(C(C)(C)C)cc(-c2nc(Br)no2)cc1C(C)(C)C`, the melting point fell in the range of 89 to 91 °C.

`CCN(CC)CC(=O)Nc1ccc(-c2n[nH]c3c2Cc2ccccc2-3)cc1`: the melting point lay in the range of 99 to 100 °C. `CCCCCCc1ccc(-n2c(-c3ccc(CC(=O)O)cc3)ccc2-c2ccc(CC(=O)O)cc2)cc1` displayed a melting point of 129 to 130 °C.

For the compound `COc1cc(Sc2cc(F)cc(C3(OC)CCOCC3)c2)ccc1/C(C)=N/O`, the melting point is 155 °C.

In turn, `CCc1nc(C)c2nnc3ccc(F)cc3n12` returned a melting point of 187 to 190 °C.

The compound `CN(C)C1CNc2c(cc(Br)cc2[N+](=O)[O-])C1` (stereo not given) displayed a melting point of 88 to 91 °C. Turning to `CS(=O)(=O)c1ccc(-n2cncc2-c2ccccc2)cc1`, the melting point is 164 °C. `NC(=O)CCC(O)c1ccccc1` (stereo not given): the melting point was in the range of 74 to 75 °C. The same measure for `O=C1c2cc3nnn(C4CC4)c(=O)c3cc2OC2CCCN12` (stereo not given): 215 to 217 °C; for `O=c1oc2c(I)cc(I)cc2s1`: 155 to 157 °C. Compound `COc1cc(C2CCN(C[C@@H](C)O)CC2)ccc1Nc1ncc2ccc(-c3cc(Cl)ccc3OC)n2n1` displayed a melting point of 94 to 108 °C. `O=C(O)COc1ccc2c(c1)Cc1sc(SCCC(c3ccccc3)c3ccccc3)nc1-2` registered a melting point of 135 to 137 °C. Compound `CC(C)C1=CC2=CCC3C(C)(C(=O)N(C)C4CCCCC4)CCCC3(C)C2CC1` (stereo not given) gave a melting point of 130 to 132 °C. On to `O=C(Cl)c1ccc(Cl)cc1[N+](=O)[O-]`, for which the melting point fell in the range of 95 to 96 °C.

As for `CC(C)Nc1nc2ccccn2c(=O)c1Br`, the melting point was 101 to 104 °C. In turn, `CC(=O)Nc1ccc(Cc2nc3cc(CC4SC(=O)NC4=O)ccc3o2)cc1` (stereo not given) gave a melting point of 233 to 236 °C. Turning to `CCN1CCN(C2c3c(C)c(N4CCN(c5ccc(OC)cc5)CC4)c(C)c(C)c3OC2(C)C)CC1` (stereo not given), the melting point was 98 to 100 °C. Compound `CCCCCCCCCCCCCCOc1ccc(CNC(=O)NCc2ccccn2)cc1` showed a melting point of 108 to 109 °C. `CCN1CCN(C(=O)Cc2ccc(I)cc2)CC1` displayed a melting point of 81 to 83 °C. `O=C(OCCOCc1ccccc1)n1c(-c2cscn2)nc2ccccc21` showed a melting point of 93 to 95 °C.

`CNc1c(C2=CC(C)(C)Oc3ccc(C#N)cc32)c(=O)c1=O`: the melting point was 193 to 194 °C.

`CCOC(=O)CCn1ccn(C2CCc3ccccc3C2)c1=S` (stereo not given) yielded a melting point of 71 to 73 °C. Take `COC(=O)C(N)(CF)Cc1ccc(O)cc1` (stereo not given): the melting point was found to be 130 °C. `O=C(NCc1ncc(C(F)(F)F)cc1Cl)c1ccc(Br)o1` returned a melting point of 77.8 °C. As to `CCOCC(=O)OC1(C(=O)CO)CCC2C3CCC4=CC(=O)CCC4(C)C3C(O)CC21C` (stereo not given), the melting point was found to be 161 °C.

With `O=C1CCC2N1CC(=O)N2c1ccccc1` (stereo not given), the melting point fell in the range of 185 to 188 °C. The compound `CCCCC(N=O)C(C)(C)Cl` (stereo not given) gave a melting point of 84 to 85 °C. As for `CN1CCC(C(=O)N(C)C)C(c2cccc(F)c2)C1` (stereo not given), the figure is 101 °C; as for `NCCCCCCCCO`, 48 to 53 °C.

For the compound `COc1cc(C)c2c(Cl)c(OC)ccc2n1`, the melting point lay within 97 to 100 °C. As for `CCc1cc(C)cc(CC)c1C1C(=O)C2=CC(CCC(C)=NOC)CC2C1=O` (stereo not given), the figure is 79 to 80 °C; as for `COc1ccc2nc(NN)nc(-c3ccccc3)c2c1`, 151 to 152 °C; as for `Fc1cccc(C2(N3CCC3)CCC3(CC2)NCCc2c3[nH]c3ccccc23)c1` (stereo not given), 186 to 188 °C. `COC1(c2cc(F)cc(Sc3ccc(C(C)=O)cc3)c2)CCOCC1` displayed a melting point of 141 °C. For `CCCn1c(=O)c2c(Cl)cc(Cl)cc2n(Cc2ccccc2)c1=O`, the melting point lay in the range of 111 to 115 °C.

Compound `O=C1N(N2CCOCC2)c2ccccc2C1(Cc1ccccc1)Cc1ccccc1` yielded a melting point of 179 to 180 °C. As for `Cc1c(-c2ccccc2)oc2c(C(=O)O)cc(Br)cc2c1=O`, the figure is 287 to 289 °C; as for `COCCCNS(=O)(=O)NC(=O)/C(C)=C/c1ccc(OC(C)C)cc1Oc1ncc(C(F)(F)F)cc1Cl`, 120 to 121 °C.

In the case of `CCOC(=O)c1cc(C)c(Cl)nc1Nc1ccccc1F`, the melting point lay within 122 to 126 °C. Turning to `O=c1c2cc(Cl)ccc2nc2n1CS(=O)(=O)N2`, the melting point is above 300 °C. `Cc1cn(C2CC(O)C(C#N)(CO)O2)c(=O)[nH]c1=O` (stereo not given) came in with a melting point of 238 to 242 °C. Consider `c1ccc2c(c1)CC(CN1CCC(c3c[nH]c4cc5c(cc34)OCO5)CC1)C2`, for which the melting point lay in the range of 187 to 188 °C.

`COC(=O)Cc1cc(OCc2ccccc2)ccc1OC` came in with a melting point of 74 to 75 °C. In turn, `NCc1nnc2n1-c1ccc(Cl)cc1C(c1ccccc1F)=CC2` came in with a melting point of 188 to 190 °C.

The compound `CCOC(=O)c1cc(-c2ccc(Cl)cc2)c(Cl)nc1N` registered a melting point of 195 to 198 °C. For the compound `O=C(O)c1cn(C2CC2)c2c(F)c(N3Cc4cccc(O)c4C3)c(F)cc2c1=O`, the melting point was above 300 °C. `Cc1cc(-n2ccnc2)c2cccc(OCc3c(Cl)ccc(S(=O)(=O)N4CCC[C@H]4C(=O)NCCCN4CCOCC4)c3Cl)c2n1`: the melting point stood at 96 °C.

Turning to `CCCCc1nc2c(N)nc3ccccc3c2n1CCCC(=O)c1ccccc1`, the melting point fell in the range of 178 to 180 °C.

`N#Cc1cnn(-c2ccc(Cl)c(Cl)c2Cl)c1NC=O` had a melting point of 190 to 192 °C. Regarding `COCCCn1nnnc1-c1cc(-c2cccc(C(F)(F)F)c2)c(O)cc1O`, the melting point was in the range of 144 to 182 °C. `CC1(c2cccc(N)c2)C2CN(Cc3ccccc3)C(=O)C21` (stereo not given) gave a melting point of 150 to 151 °C. For the compound `CC1(C)C(=O)Oc2ccc3cc(C(N)=O)c(Cn4cncn4)cc3c21`, the melting point lay within 231 to 232 °C. In turn, `Cc1nnc(-c2ccc(C)c(Br)c2)o1` showed a melting point of 91 to 93 °C. `Fc1cnccc1Nn1ccc2cc(OCc3ccccc3)ccc21` gave a melting point of 140 °C. `CCC1(C)CN(c2c(F)c(N)c3c(=O)c(C(=O)O)cn(C4CC4)c3c2OC)CCC1NC` (stereo not given): the melting point was 164 to 166 °C. For the compound `Cc1ccc(F)c(-c2ccc(S(=O)(=O)N3c4ccccc4CC3C(=O)NCCOc3ccc(CC(=O)O)cc3)cc2)c1` (stereo not given), the melting point was in the range of 82 to 85 °C. `O=S(=O)(c1ccc(N2CCCCCC2)cc1)N1CCCC1=S` displayed a melting point of 172 to 173 °C. `Cc1cc(C)n(-c2nc(Nc3ccc4ccccc4c3)c3ccccc3n2)n1` came in with a melting point of 213 to 216 °C. In turn, `CCCCCCCCCCCCCCCCCCC(NC(C)=O)(C(=O)OCC)C(=O)OCC` displayed a melting point of 70 to 71 °C. The same measure for `O=C(Nc1ccc(-n2nc(C(F)(F)F)cc2C2CC2)c(F)c1)c1ccc2nn[nH]c2c1`: 235 to 237 °C; for `CCN(CC)CCNc1cccc2c1C(=O)c1c(NCCN(CC)CC)cccc1C2=O`: 104 to 106 °C. As for `CCOC(=O)c1c(Cn2cnnc2)nc2cc(OC)c(OC)cc2c1-c1ccc(OC)c(OC(C)C)c1`, the figure is 170 to 171 °C. Compound `CCCCc1nc(-c2ccc(N3CCN(C(=O)c4ccccc4C(F)(F)F)CC3)nn2)no1` yielded a melting point of 175 °C.

In turn, `CCCNC1=NS(=O)(=O)c2sc(Cl)cc2N1` had a melting point of 258 to 261 °C.

As for `C=C(Cc1ccccc1)C(=O)N[C@@H](CC(C)C)C(=O)O`, the melting point lay within 56 to 60 °C. In turn, `O=[N+]([O-])C=Cc1cnc2c(OCc3ccccc3)cccn12` displayed a melting point of 204 °C. As for `COC(=O)/C=C/c1c(-c2ccc(F)cc2)cccc1C(C)C`, the melting point fell in the range of 87 to 89 °C.

For the compound `N=C(N)NCCCOc1ccc2cc(CC(=O)O)c(=O)n(Cc3ccccc3)c2c1`, the melting point is 132 to 134 °C.

Compound `O=c1[nH]nc(-c2ccccc2)c(-c2ccccc2)c1S(=O)(=O)c1ccccc1` showed a melting point of 254 to 256 °C. `C=CCOc1cc2c(c(Cl)c1Cl)C(=O)C(C)(c1ccccc1)C2` (stereo not given) came in with a melting point of 105 °C. As for `Cc1cc(Cl)cc(C(=O)NC(C)CSC[Si](C)(C)C)c1NC(=O)c1cc(Br)nn1-c1ncccc1Cl` (stereo not given), the figure is 151 to 153 °C; as for `COc1ccc(C=Cc2oc3ccc(Br)cc3c2C(C)=O)cc1`, 163 to 165 °C; as for `CCN(C(C)=O)c1cccc(-c2ccc(Cl)nn2)c1`, 116 to 119 °C. The same measure for `CCCNc1ccc(C(=O)O)cc1[N+](=O)[O-]`: 208 °C; for `CC(=O)OC1CSC(Oc2cccnc2-c2cncnc2)C(OC(C)=O)C1OC(C)=O` (stereo not given): 205 °C. On to `COc1cccc(C=C2NC(=O)NC2=O)c1OCCc1ccccc1`, for which the melting point was in the range of 199 to 201 °C. As for `O=C(N1CCc2cccc(O)c2CC1)C(F)(F)F`, the figure is 183 to 186 °C. For the compound `Cc1cc(NCc2ccccc2)n(C)n1`, the melting point is 95 to 97 °C. As for `FC(F)C(F)(F)Sc1nc(-c2ccc(Cl)c(Cl)c2)c(-c2cccs2)[nH]1`, the figure is 178 to 180 °C.
